# From PubChem BioAssay (NCI)
#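 A five-concentration, 48-hour dose response in 96-well plates underlies each endpoint, interpolated linearly between surrounding concentrations. At the GI50, growth is halved. The concentration for full growth arrest is given as TGI.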
# Columns and labels:
# Assay in all cases: growth of human tumour cells (NCI), 48 h
# [1] = system: 786-0 renal
# [2] = system: A498 renal
# [3] = system: A549 NSCLC
# [4] = system: ACHN renal
# [5] = system: BT-549 breast
# [6] = system: CAKI-1 renal
# [7] = system: CCRF-CEM leukemia
# [8] = system: COLO 205 colon
# [9] = system: DU-145 prostate
# [10] = system: EKVX NSCLC
# [11] = system: HCC-2998 colon
# [12] = system: HCT-116 colon
# [13] = system: HCT-15 colon
# [14] = system: HL-60(TB) leukemia
# [15] = system: HOP-62 NSCLC
# [16] = system: HOP-92 NSCLC
# [17] = system: HS 578T breast
# [18] = system: HT29 colon
# [19] = system: IGROV1 ovarian
# [20] = system: K-562 leukemia
# [21] = system: KM12 colon
# [22] = system: LOX IMVI melanoma
# [23] = system: M14 melanoma
# [24] = system: MALME-3M melanoma
# [25] = system: MCF7 breast
# [26] = system: MDA-MB-231 breast
# [27] = system: MDA-MB-435
# [28] = system: MOLT-4 leukemia
# [29] = system: NCI-H226 lung
# [30] = system: NCI-H460 lung
# [31] = system: NCI-H522 lung
# [32] = system: NCI/ADR-RES ovarian
# [33] = system: OVCAR-3 ovarian
# [34] = system: OVCAR-4 ovarian
# [35] = system: OVCAR-5 ovarian
# [36] = system: OVCAR-8 ovarian
# [37] = system: PC-3 prostate
# [38] = system: RPMI-8226 leukemia
# [39] = system: RXF 393 renal
# [40] = system: SF-268 CNS
# [41] = system: SF-295 CNS
# [42] = system: SF-539 CNS
# [43] = system: SK-MEL-2 melanoma
# [44] = system: SK-MEL-28 melanoma
# [45] = system: SK-MEL-5 melanoma
# [46] = system: SK-OV-3 ovarian
# [47] = system: SN12C renal
# [48] = system: SNB-19 CNS
# [49] = system: SNB-75 CNS
# [50] = system: SR leukemia
# [51] = system: SW-620 colon
# [52] = system: T-47D breast
# [53] = system: TK-10 renal
# [54] = system: U251 CNS
# [55] = system: UACC-257 melanoma
# [56] = system: UACC-62 melanoma
# [57] = system: UO-31 renal
structure (smiles),measurement,setting,value
CN(C)S(=O)(=O)c1oc(-c2ccccc2)nc1C#N,GI50,[1],15.3 µM
same,TGI,[1],29.3 µM
same,GI50,[2],> 100 µM
same,TGI,[2],> 100 µM
same,GI50,[3],73.9 µM
same,TGI,[3],> 100 µM
same,GI50,[4],14.9 µM
same,TGI,[4],28.6 µM
same,GI50,[5],12 µM
same,TGI,[5],25.1 µM
same,GI50,[6],10.4 µM
same,TGI,[6],22.1 µM
same,GI50,[7],1.9 µM
same,TGI,[7],9.32 µM
same,GI50,[8],11.5 µM
same,TGI,[8],24.7 µM
same,GI50,[9],15.6 µM
same,TGI,[9],29.4 µM
same,GI50,[10],21.5 µM
same,TGI,[10],52.4 µM
same,GI50,[11],16.9 µM
same,TGI,[11],31.6 µM
same,GI50,[12],12.6 µM
same,TGI,[12],25.6 µM
same,GI50,[13],11.6 µM
same,TGI,[13],29.5 µM
same,GI50,[14],6.58 µM
same,TGI,[14],29.4 µM
same,GI50,[15],> 100 µM
same,TGI,[15],> 100 µM
same,GI50,[16],5.76 µM
same,TGI,[16],20.1 µM
same,GI50,[17],23.4 µM
same,TGI,[17],98.4 µM
same,GI50,[18],16.6 µM
same,TGI,[18],36.1 µM
same,GI50,[19],29 µM
same,TGI,[19],> 100 µM
same,GI50,[20],3.58 µM
same,TGI,[20],37.8 µM
same,GI50,[21],28.5 µM
same,TGI,[21],97.9 µM
same,GI50,[22],1.26 µM
same,TGI,[22],11.6 µM
same,GI50,[23],12.1 µM
same,TGI,[23],26.7 µM
same,GI50,[24],13.4 µM
same,TGI,[24],30.1 µM
same,GI50,[25],12 µM
same,TGI,[25],31.6 µM
same,GI50,[26],23.5 µM
same,TGI,[26],59.2 µM
same,GI50,[27],18.3 µM
same,TGI,[27],44.9 µM
same,GI50,[28],2.82 µM
same,TGI,[28],11.5 µM
same,GI50,[29],10 µM
same,TGI,[29],27.9 µM
same,GI50,[30],22.3 µM
same,TGI,[30],58.9 µM
same,GI50,[31],2.81 µM
same,TGI,[31],11 µM
same,GI50,[32],29.9 µM
same,TGI,[32],> 100 µM
same,GI50,[33],12.9 µM
same,TGI,[33],27.8 µM
same,GI50,[34],14.8 µM
same,TGI,[34],32 µM
same,GI50,[35],18.1 µM
same,TGI,[35],36.7 µM
same,GI50,[36],19 µM
same,TGI,[36],39.6 µM
same,GI50,[37],15.3 µM
same,TGI,[37],32.2 µM
same,GI50,[38],18.9 µM
same,TGI,[38],43.8 µM
same,GI50,[39],14.4 µM
same,TGI,[39],28.4 µM
same,GI50,[40],19.6 µM
same,TGI,[40],49.8 µM
same,GI50,[41],> 100 µM
same,TGI,[41],> 100 µM
same,GI50,[42],17.6 µM
same,TGI,[42],32.4 µM
same,GI50,[43],13.8 µM
same,TGI,[43],28.6 µM
same,GI50,[44],16.3 µM
same,TGI,[44],31.1 µM
same,GI50,[45],18.1 µM
same,TGI,[45],34.1 µM
same,GI50,[46],> 100 µM
same,TGI,[46],> 100 µM
same,GI50,[47],17.2 µM
same,TGI,[47],49.1 µM
same,GI50,[48],50 µM
same,TGI,[48],> 100 µM
same,GI50,[49],16.1 µM
same,TGI,[49],30.7 µM
same,GI50,[50],2.56 µM
same,TGI,[50],13.4 µM
same,GI50,[51],9.58 µM
same,TGI,[51],26.2 µM
same,GI50,[52],16.1 µM
same,TGI,[52],38.5 µM
same,GI50,[53],17.4 µM
same,TGI,[53],31.6 µM
same,GI50,[54],17.1 µM
same,TGI,[54],32.6 µM
same,GI50,[55],15 µM
same,TGI,[55],29.8 µM
same,GI50,[56],18.4 µM
same,TGI,[56],42.3 µM
same,GI50,[57],14.7 µM
same,TGI,[57],28.2 µM
